Assay results from patent US20220340951A1, “MEASURING THE ANTIMICROBIAL SUSCEPTIBILITY OF MICROBES” (priority 2019, published 2022).
≈ marks a conversion by molar mass, not a printed value. Entries after “also recorded” stand apart in the source; their conditions may differ.

Experiments:
[1] = Antibiotic screening: CV, EIS and DPV of antibiotic solutions (without gels) on gold screen printed electrode; format: physicochemical; details: antibiotic at typical working concentration, no gel; for Phase / Z at 100 kHz: EIS; for CDL / RSOLN: fitted EIS
Procedure: CV measurements were performed by sweeping the potential between −0.3 V to 0.5 V with reference to the Ag electrode three times. Analysis was performed using the third measurement. Electrodes were also characterised using differential pulse voltammetry (DPV) across the same potential range as CV. Peak current (Ipk) was extracted from the DPV measurement. Electrodes were also characterised using EIS. […] The Nyquist and Bode impedance plots that were generated were fitted to the Randles' equivalent circuit to extract various impedance parameters. […] A wide spectrum of antibiotics were tested including amoxicillin, oxacillin, methicillin, ampicillin, chloramphenicol, gentamicin, streptomycin and carbenicillin. […] Amoxicillin was then tested in an agarose gel with and without FF-C present (FIG. 2 (b)). […] The majority of the parameters are taken from fitted EIS data alongside Ipk from DPV measurements.

[2] = system: Staphylococcus aureus (ATCC 29213); assay: Electrochemical (EIS) bacterial growth profile on antibiotic-infused gel-modified electrode; format: cell-based; details: for Z at 100 kHz growth profile compared with baseline (no bacteria): antibiotic 8 μg/ml in gel, up to 150 minutes
[3] = system: methicillin-resistant Staphylococcus aureus (MRSA: ATCC 43300); assay: Electrochemical (EIS/DPV) bacterial growth profile on antibiotic-infused gel-modified electrode; format: cell-based
sensitive S. aureus = assay: Gel streak plate growth (1 wt % agarose + LB); format: cell-based, Staphylococcus aureus; details: amoxicillin 8 μg/ml; with or without FF-C
[4] = system: methicillin-resistant S. aureus (MRSA); assay: Gel streak plate growth (1 wt % agarose + LB Broth + FF-C); format: cell-based, Staphylococcus aureus; details: amoxicillin 8 μg/ml
MRSA = assay: Minimum inhibitory concentration by two-fold broth microdilution; format: cell-based; details: Staphylococcus aureus; strain not stated explicitly; printed in the MRSA context
E. coli (ATCC 25922) = assay: Minimum inhibitory concentration of streptomycin as used in E. coli gels; format: cell-based; details: Escherichia coli, ATCC25922

Cc1onc(-c2ccccc2)c1C(=O)N[C@@H]1C(=O)N2[C@@H]1SC(C)(C)[C@@H]2C(=O)O [oxacillin]
DPV Ipk [1]: 0 μA | Phase [1]: 111.17 ° | Z at 100 kHz [1]: 22.79 kΩ | CDL [1]: 0.28 μF | RSOLN [1]: 49.81 kΩ | Z at 100 kHz growth profile compared with baseline (no bacteria) [2]: very similar Z profile to the baseline measurement | baseline-subtracted Z at 100 kHz over time ([2]; oxacillin gel 8 μg/ml, up to ~70 minutes): remains fairly flat | Z growth curves for gels with and without oxacillin ([3]; oxacillin 8 μg/ml gel): look very similar for gels with and without oxacillin

CC1(C)S[C@@H]2[C@H](NC(=O)[C@H](N)c3ccccc3)C(=O)N2[C@H]1C(=O)O [ampicillin]
DPV Ipk [1]: 0 μA | Phase [1]: 67.63 ° | Z at 100 kHz [1]: 10.88 kΩ | CDL [1]: 0.38 μF | RSOLN [1]: 40.93 kΩ

gentamicin
DPV Ipk [1]: 0.01 μA | Phase [1]: 31.68 ° | Z at 100 kHz [1]: 6.05 kΩ | CDL [1]: 0.77 μF | RSOLN [1]: 7.97 kΩ

COc1cccc(OC)c1C(=O)N[C@@H]1C(=O)N2[C@@H]1SC(C)(C)[C@@H]2C(=O)O [methicillin]
DPV Ipk [1]: 0.06 μA | Phase [1]: 61.43 ° | Z at 100 kHz [1]: 15.92 kΩ | CDL [1]: 0.53 μF | RSOLN [1]: 67.30 kΩ

CC1(C)S[C@@H]2[C@H](NC(=O)[C@H](N)c3ccc(O)cc3)C(=O)N2[C@H]1C(=O)O [amoxicillin]
DPV Ipk [1]: 0.02 μA | Phase [1]: 82.74 ° | Z at 100 kHz [1]: 21.34 kΩ | CDL [1]: 0.53 μF | RSOLN [1]: 143.30 kΩ | baseline-subtracted Z at 100 kHz over time ([2]; amoxicillin-laden gel 8 μg/ml, between 30 and 100 minutes): unchanging | Z at 100 kHz growth profile compared with baseline (no bacteria) [2]: almost identical response to the baseline response | change in Z (baseline subtracted) ([3]; amoxicillin 8 μg/ml gel, over 30-100 minutes): ~11 Ω | Z at 100 kHz growth profile compared with baseline (no bacteria) ([3]; amoxicillin 8 μg/ml in gel): does not imitate the baseline | DPV peak current (Ipk) growth profile, baseline subtracted ([3]; amoxicillin 50 μg/ml gel): almost completely flat | change in Z (baseline subtracted) ([3]; amoxicillin 50 μg/ml gel, 30-100 minutes): virtually no change in Z | Z at 100 kHz growth profile compared with baseline (no bacteria) ([3]; amoxicillin 50 μg/ml in gel): very similar profile to the baseline measurement | growth on streak plate (sensitive S. aureus): completely inhibited; also recorded: unable to grow | growth on streak plate [4]: displays growth either in the presence or absence of amoxicillin | MIC (MRSA): ~8 µg/mL (≈ 21.9 µM)

[H]/N=C(/N)N[C@H]1[C@H](O)[C@@H](O)[C@H](O[C@@H]2O[C@@H](C)[C@](O)(C=O)[C@H]2O[C@@H]2O[C@@H](CO)[C@H](O)[C@@H](O)[C@@H]2NC)[C@@H](N/C(N)=N\[H])[C@@H]1O [streptomycin]
DPV Ipk [1]: 0 μA | Phase [1]: 58.51 ° | Z at 100 kHz [1]: 16.45 kΩ | CDL [1]: 0.58 μF | RSOLN [1]: 55.85 kΩ | MIC (E. coli (ATCC 25922)): ~4 µg/mL (≈ 6.88 µM)

O=C(N[C@H](CO)[C@H](O)c1ccc([N+](=O)[O-])cc1)C(Cl)Cl [chloramphenicol]
DPV Ipk [1]: 0.31 μA | Phase [1]: 76.20 ° | Z at 100 kHz [1]: 19.06 kΩ | CDL [1]: 0.41 μF | RSOLN [1]: 94.39 kΩ

CC1(C)S[C@@H]2[C@H](NC(=O)C(C(=O)O)c3ccccc3)C(=O)N2[C@H]1C(=O)O (stereo partly drawn) [carbenicillin]
DPV Ipk [1]: 0 μA | Phase [1]: 46.56 ° | Z at 100 kHz [1]: 7.54 kΩ | CDL [1]: 0.44 μF | RSOLN [1]: 11.83 kΩ
